Measured values: PubChem BioAssay (NCI)
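Tested at 5 concentrations; 48 h exposure; 96-well plates; endpoints linearly interpolated, else capped at highest concentration. GI50 is the concentration that inhibits growth by half. At the TGI there is no net growth.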

What was measured:
Experiment in all cases: NCI-60 cell line screen, 48 h
[1] = tested on: A498 renal
[2] = tested on: ACHN renal
[3] = tested on: CCRF-CEM leukemia
[4] = tested on: COLO 205 colon
[5] = tested on: DMS 114 small cell lung
[6] = tested on: HL-60(TB) leukemia
[7] = tested on: HOP-62 NSCLC
[8] = tested on: HOP-92 NSCLC
[9] = tested on: HT29 colon
[10] = tested on: IGROV1 ovarian
[11] = tested on: K-562 leukemia
[12] = tested on: KM12 colon
[13] = tested on: KM20L2 colon
[14] = tested on: LXFL 529 NSCLC
[15] = tested on: M14 melanoma
[16] = tested on: M19-MEL melanoma
[17] = tested on: MOLT-4 leukemia
[18] = tested on: NCI-H23 lung
[19] = tested on: NCI-H460 lung
[20] = tested on: NCI-H522 lung
[21] = tested on: OVCAR-3 ovarian
[22] = tested on: OVCAR-4 ovarian
[23] = tested on: OVCAR-5 ovarian
[24] = tested on: RPMI-8226 leukemia
[25] = tested on: RXF 393 renal
[26] = tested on: SF-268 CNS
[27] = tested on: SF-295 CNS
[28] = tested on: SF-539 CNS
[29] = tested on: SK-MEL-2 melanoma
[30] = tested on: SK-MEL-28 melanoma
[31] = tested on: SK-OV-3 ovarian
[32] = tested on: SNB-19 CNS
[33] = tested on: SNB-75 CNS
[34] = tested on: SNB-78 CNS
[35] = tested on: SR leukemia
[36] = tested on: U251 CNS
[37] = tested on: UACC-257 melanoma
[38] = tested on: UACC-62 melanoma
[39] = tested on: UO-31 renal
[40] = tested on: 786-0 renal
[41] = tested on: A549 NSCLC
[42] = tested on: BT-549 breast
[43] = tested on: CAKI-1 renal
[44] = tested on: DU-145 prostate
[45] = tested on: EKVX NSCLC
[46] = tested on: HCC-2998 colon
[47] = tested on: HCT-116 colon
[48] = tested on: HCT-15 colon
[49] = tested on: HS 578T breast
[50] = tested on: LOX IMVI melanoma
[51] = tested on: MALME-3M melanoma
[52] = tested on: MCF7 breast
[53] = tested on: MDA-MB-231 breast
[54] = tested on: MDA-MB-435
[55] = tested on: MDA-N
[56] = tested on: NCI-H226 lung
[57] = tested on: NCI/ADR-RES ovarian
[58] = tested on: OVCAR-8 ovarian
[59] = tested on: PC-3 prostate
[60] = tested on: SK-MEL-5 melanoma
[61] = tested on: SN12C renal
[62] = tested on: SW-620 colon
[63] = tested on: T-47D breast
[64] = tested on: TK-10 renal
[65] = tested on: DLD-1 colon
[66] = tested on: DMS 273 small cell lung
[67] = tested on: HOP-18 NSCLC

CCO[C@@H]1OC(=O)[C@](C)(C(C)=O)[C@@H]1C
TGI [1]: > 100 µM | TGI [2]: > 100 µM | TGI [3]: 89.5 µM | TGI [4]: > 100 µM | TGI [5]: > 100 µM | TGI [6]: 79.6 µM | TGI [7]: > 100 µM | TGI [8]: > 100 µM | TGI [9]: > 100 µM | TGI [10]: > 100 µM | TGI [11]: > 100 µM | TGI [12]: > 100 µM | TGI [13]: > 100 µM | TGI [14]: > 100 µM | TGI [15]: > 100 µM | TGI [16]: > 100 µM | TGI [17]: > 100 µM | TGI [18]: 60.1 µM | TGI [19]: > 100 µM | TGI [20]: > 100 µM | TGI [21]: > 100 µM | TGI [22]: > 100 µM | TGI [23]: > 100 µM | TGI [24]: > 100 µM | TGI [25]: > 100 µM | TGI [26]: 67.8 µM | TGI [27]: > 100 µM | TGI [28]: > 100 µM | TGI [29]: > 100 µM | TGI [30]: > 100 µM | TGI [31]: > 100 µM | TGI [32]: > 100 µM | TGI [33]: 98.4 µM | TGI [34]: > 100 µM | TGI [35]: > 100 µM | TGI [36]: > 100 µM | TGI [37]: > 100 µM | TGI [38]: > 100 µM | TGI [39]: > 100 µM

C#Cc1cccc(Nc2ncnc3cc(OCCOC)c(OCCOC)cc23)c1
TGI [40]: 48 µM | GI50 [1]: 2.19 µM | TGI [1]: 45.8 µM | TGI [41]: > 100 µM | TGI [2]: 32.2 µM | GI50 [42]: 33.4 µM | TGI [42]: 98.7 µM | TGI [43]: 10 µM | TGI [3]: > 100 µM | TGI [4]: > 100 µM | GI50 [44]: 1.6 µM | TGI [44]: > 100 µM | GI50 [45]: 0.301 µM | TGI [45]: > 93.7 µM | GI50 [46]: > 88.8 µM | TGI [46]: > 100 µM | TGI [47]: > 100 µM | TGI [48]: > 100 µM | GI50 [6]: 20.6 µM | TGI [6]: > 100 µM | TGI [7]: 59.7 µM | TGI [8]: 60.2 µM | TGI [49]: 86.3 µM | TGI [9]: > 100 µM | TGI [10]: 16.9 µM | GI50 [11]: 27.7 µM | TGI [11]: > 100 µM | TGI [12]: > 100 µM | TGI [50]: > 100 µM | TGI [15]: > 100 µM | GI50 [51]: 1.85 µM | TGI [51]: 43 µM | GI50 [52]: > 100 µM | TGI [52]: > 100 µM | TGI [53]: 44.2 µM | TGI [54]: > 100 µM | TGI [55]: > 100 µM | GI50 [17]: 24.2 µM | TGI [17]: > 100 µM | GI50 [56]: 47.4 µM | TGI [56]: > 100 µM | TGI [18]: > 100 µM | TGI [19]: > 91.4 µM | GI50 [20]: 0.901 µM | TGI [20]: 27.1 µM | TGI [57]: > 100 µM | GI50 [21]: 3.53 µM | TGI [21]: > 100 µM | TGI [22]: > 100 µM | TGI [23]: > 100 µM | TGI [58]: > 93.3 µM | TGI [59]: > 100 µM | TGI [24]: > 74.7 µM | GI50 [25]: 3.97 µM | TGI [25]: 34.9 µM | GI50 [26]: 14.6 µM | TGI [26]: > 100 µM | TGI [27]: 67.6 µM | TGI [28]: 81 µM | TGI [29]: 50.6 µM | TGI [30]: > 100 µM | TGI [60]: > 78.9 µM | TGI [31]: 5.2 µM | TGI [61]: > 51.6 µM | TGI [32]: 92 µM | TGI [33]: 46.7 µM | GI50 [35]: 9.98 µM | TGI [35]: > 100 µM | TGI [62]: > 100 µM | GI50 [63]: 4.17 µM | TGI [63]: > 100 µM | GI50 [64]: 0.196 µM | TGI [64]: 47.8 µM | TGI [36]: 99 µM | TGI [37]: > 100 µM | TGI [38]: 38 µM | TGI [39]: 74.5 µM

CC(=O)OCC1(CNc2nc(N)ncc2C#N)CC(CCc2ccccc2)C1 (stereo unspecified)
TGI [40]: > 100 µM | TGI [1]: > 100 µM | TGI [41]: > 100 µM | TGI [2]: > 100 µM | TGI [42]: > 100 µM | TGI [43]: > 100 µM | TGI [3]: > 100 µM | TGI [4]: > 100 µM | TGI [44]: > 100 µM | TGI [45]: > 100 µM | TGI [47]: > 100 µM | TGI [48]: > 100 µM | TGI [6]: > 100 µM | TGI [7]: > 100 µM | TGI [8]: 49.9 µM | TGI [49]: > 100 µM | TGI [9]: > 100 µM | TGI [10]: > 100 µM | TGI [11]: > 100 µM | TGI [12]: > 100 µM | TGI [50]: > 100 µM | TGI [51]: > 100 µM | TGI [52]: > 100 µM | TGI [53]: > 100 µM | TGI [54]: > 100 µM | TGI [55]: > 100 µM | TGI [17]: > 100 µM | TGI [56]: > 100 µM | TGI [18]: > 100 µM | TGI [19]: > 100 µM | TGI [20]: > 100 µM | TGI [57]: > 100 µM | TGI [22]: > 100 µM | TGI [23]: > 100 µM | TGI [58]: > 100 µM | TGI [59]: > 100 µM | TGI [25]: > 100 µM | TGI [26]: > 100 µM | TGI [27]: > 100 µM | TGI [28]: > 100 µM | TGI [29]: > 100 µM | TGI [30]: > 100 µM | TGI [60]: 42.8 µM | TGI [61]: > 100 µM | TGI [33]: > 100 µM | TGI [35]: > 100 µM | TGI [62]: > 100 µM | TGI [63]: > 100 µM | TGI [36]: > 100 µM | TGI [37]: > 100 µM | TGI [38]: > 100 µM | TGI [39]: > 100 µM

CCCCCCCCCC(=O)CC(=O)c1ccc(O)cc1O
TGI [40]: > 100 µM | TGI [41]: > 100 µM | TGI [2]: 89.3 µM | TGI [43]: 85.9 µM | TGI [3]: > 100 µM | TGI [4]: > 100 µM | TGI [65]: > 100 µM | TGI [66]: 74.1 µM | TGI [45]: 73 µM | TGI [46]: 46.3 µM | TGI [47]: 66.6 µM | TGI [48]: > 100 µM | TGI [6]: 53.9 µM | TGI [67]: 81.9 µM | TGI [7]: 46.5 µM | TGI [8]: 79.4 µM | TGI [9]: > 100 µM | TGI [10]: > 100 µM | TGI [11]: > 100 µM | TGI [12]: 61 µM | TGI [13]: > 100 µM | TGI [50]: 38.7 µM | TGI [14]: > 100 µM | TGI [15]: 54.7 µM | TGI [51]: > 100 µM | TGI [17]: 49.7 µM | TGI [56]: 84.9 µM | TGI [18]: 59.8 µM | TGI [19]: > 100 µM | TGI [20]: 48.2 µM | TGI [21]: 45 µM | TGI [22]: > 100 µM | TGI [23]: 94 µM | TGI [58]: 67.9 µM | TGI [24]: 59.6 µM | TGI [25]: 72.1 µM | TGI [26]: > 100 µM | TGI [27]: 70.1 µM | TGI [28]: 96.5 µM | TGI [29]: 49.9 µM | TGI [30]: > 100 µM | TGI [60]: 31.5 µM | TGI [31]: > 100 µM | TGI [61]: 74.4 µM | TGI [32]: > 100 µM | TGI [33]: 95.5 µM | TGI [35]: 44.9 µM | TGI [62]: > 100 µM | TGI [64]: > 100 µM | TGI [36]: 64.9 µM | TGI [37]: 71.2 µM | TGI [38]: 43 µM | TGI [39]: 98 µM
